In patent publication US20210386841A1, “COMPOSITIONS FOR TRANSFECTING mRNA INTO A CELL AND THEIR APPLICATIONS” (POLYPLUS TRANSFECTION, priority 2018, published 2021):

Legend:
Type in all cases: cell-based
[1] = test system: Jurkat Clone E6-1 human T lymphoblast cells; test: eGFP mRNA transfection, Jurkat cells (96-well); conditions: 150 ng eGFP mRNA, 24 h
Protocol: Jurkat Clone E6-1 (ATCC® TIB-152™) human T lymphoblast cells were grown in RPMI-1640 (LONZA) with 10% of FBS (EUROBIO) and supplemented with 2 mM Glutamine (LONZA), 100 U/mL of penicillin and 100 μg/mL of streptomycin (LONZA) at 37° C. in a 5% CO2 in air atmosphere.
(§1) mRNA eGFP (996 nt, reference L-6101) from TriLink Technologies was used for the in vitro transfection experiments and expressed enhanced green fluorescent protein which is a common reporter gene (eGFP). This mRNA was capped with a Cap 0, polyadenylated and modified with 5-methylcytidine and pseudo-uridine.
(§2) One day before transfection, Caco-2, THP-1 or BJ Cells were seeded at 10 000, 25 000, or 5 000 cells per well (96-well plate format), respectively, in 125 μL of their respective complete medium and incubated at 37° C. in a 5% CO2 in air atmosphere. For Jurkat cells, 25 000 cells were seeded per well prior transfection. On the day of transfection 150 ng of mRNA was added in 11.5 μL of 5% glucose solution, mixed with a vortex and incubated for 5 minutes at rt. Then, 1 μL of 1 mM cationic liposomal formulation was added onto the diluted mRNA, mixed with a vortex and incubated for 15 minutes at rt. The formulated mRNA solution (12.5 μL) was added into the well and the plate was incubated for 24 hours at 37° C. in a 5% CO2 in air atmosphere.
(§3) For the GFP expression analysis, the cell culture medium was removed for the adherent cells and 50 μL of trypsin-EDTA (1×, Lonza) was added and the plate was incubated for 5 minutes at 37° C. 150 μL of complete medium were added to neutralize the trypsin, and the GFP expression was analysed (2000 events) by flow cytometry (Exc 488 nm, Em 520 nm) using a Guava easyCyte 6HT cytometer (Millipore).
(§4) All these new liposomal formulations (Table 1) were assessed to deliver mRNA expressing an enhanced green fluorescent protein (eGFP) as reporter gene in order to determine the gene expression and the transfection efficiency (Table 2). mRNA eGFP capped with a Cap 0 in 5′-end, polyadenylated in 3′-end and modified with 5-methylcytidine and pseudo-uridine was used in the transfection assay. The transfection assay was performed as described in the Experimental section where 150 ng of mRNA eGFP was complexed with 1 μL of 1 mM cationic liposomal formulations in a 5% glucose solution before the addition on the cells. One day post-transfection, the eGFP expression was analyzed by flow cytometry to determine the percentage of transfection. Four different cell lines were used in this assay from easy to transfect cells to hard to transfect cells with plasmid DNA, including human BJ skin fibroblast cells, THP-1 human peripheral blood monocytes, Caco-2 human colon epithelial cells and Jurkat Clone E6-1 human T lymphoblast cells, respectively.

[2] = test system: Caco-2 human colon epithelial cells; test: eGFP mRNA transfection, Caco-2 cells (96-well); conditions: for Transfection efficiency (eGFP %) CaCO2: ratio 1/2, 150 ng eGFP mRNA, 24 h
Protocol: Caco-2 (ATCC® HTB-37™) human colon epithelial cells were grown in DMEM 4.5 g/L glucose with 20% FBS supplemented with 1% non-essential amino acids, 1 mM sodium pyruvate, 2 mM glutamine and 100 U/mL of penicillin and 100 μg/mL of streptomycin at 37° C. in a 5% CO2 in air atmosphere.
as §1, §2, §3, §4

[3] = test system: THP-1 human peripheral blood monocyte cells; test: eGFP mRNA transfection, THP-1 cells (96-well); conditions: ratio 1/2, 150 ng eGFP mRNA, 24 h
Protocol: THP-1 (ATCC® TIB-202™) human peripheral blood monocyte cells were grown in RPMI-1640 with 10% FBS and supplemented with 10 mM HEPES buffer, 1 mM sodium pyruvate, 0.05 mM 2-mercaptoethanol, 2 mM glutamine, 100 U/mL of penicillin and 100 μg/mL of streptomycin at 37° C. in a 5% CO2 in air atmosphere.
as §1, §2, §3, §4

[4] = test system: BJ human skin fibroblast cells; test: eGFP mRNA transfection, BJ cells (96-well); conditions: co-lipid DOPE, ratio 1/2; 150 ng eGFP mRNA; 24 h
Protocol: BJ (ATCC® CRL-2522™) human skin fibroblast cells were grown in Eagle's Minimum Essential Medium with 10% FBS and supplemented with 1% non-essential amino acids, 1 mM sodium pyruvate, 2 mM glutamine and 100 U/mL of penicillin and 100 μg/mL of streptomycin at 37° C. in a 5% CO2 in air atmosphere.
as §1, §2, §3, §4

[5] = co-lipid DOPE, ratio compound/co-lipid 1/2, 1 μL of 1 mM formulation, flow cytometry

CCCCCCCC/C=C\CCCCCCCCC(CCCCCCCC/C=C\CCCCCCCC)[n+]1ccn(C)c1.[Cl-] [Compound W1.4, 1-methyl-3-(heptatriaconta-9,28-dien-19-yl)-1-methyl-1H-imidazol-3-ium chloride]
Transfection efficiency (eGFP %) Jurkat [1, 5]: 10-15%
Transfection efficiency (eGFP %) CaCO2 ([2]; co-lipid DOPE): 15-25%
Transfection efficiency (eGFP %) THP-1 ([3]; co-lipid DOPE): 80-85%
Transfection efficiency (eGFP %) BJ [4]: 80-95%

CCCCCCC/C=C\CCCCCCCCC(CCCCCCCCCCCCCC)[n+]1ccn(C)c1 (stereo not shown) [Compound W2.5]
Transfection efficiency (eGFP %) Jurkat [1, 5]: 1-5%
Transfection efficiency (eGFP %) CaCO2 ([2]; co-lipid DOPE): 5-10%
Transfection efficiency (eGFP %) THP-1 ([3]; co-lipid DOPE): 70-75%
Transfection efficiency (eGFP %) BJ [4]: 70-85%

CCCCCCC/C=C\CCCCCCCCC(CCCCCCCCCCCCCCCCCC)[n+]1ccn(C)c1.[Cl-] (stereo not shown) [Compound W3.5, 1-methyl-3-(hexatriacont-8-en-18-yl)-1H-imidazol-3-ium chloride]
Transfection efficiency (eGFP %) Jurkat [1, 5]: 10-15%
Transfection efficiency (eGFP %) CaCO2 ([2]; co-lipid DOPE): 35-40%
Transfection efficiency (eGFP %) THP-1 ([3]; co-lipid DOPE): 35-45%
Transfection efficiency (eGFP %) BJ [4]: 80-95%

CCCCCCCCCCCCCCCCCCC(CCCCCCCCCC)[n+]1ccn(C)c1.[Cl-] (stereo not shown) [Compound W6.3, 1-methyl-3-(nonacosan-11-yl)-1H-imidazol-3-ium chloride]
Transfection efficiency (eGFP %) Jurkat [1, 5]: 20-25%
Transfection efficiency (eGFP %) CaCO2 ([2]; co-lipid DOPE): 5-10%
Transfection efficiency (eGFP %) THP-1 ([3]; co-lipid DOPE): 30-40%
Transfection efficiency (eGFP %) BJ [4]: 80-85%

CCCCCCCCCCCCCCCCCCC(CCCCCCCCCCCCCCCCC)C[n+]1ccn(C)c1.[Cl-] (stereo not shown) [Compound W7.4, 1-methyl-3-(2-heptadecylicosyl)-1H-imidazol-3-ium chloride]
Transfection efficiency (eGFP %) Jurkat [1, 5]: 5-15%
Transfection efficiency (eGFP %) CaCO2 ([2]; co-lipid DOPE): 5-15%
Transfection efficiency (eGFP %) THP-1 ([3]; co-lipid DOPE): 40-50%
Transfection efficiency (eGFP %) BJ [4]: 65-75%

CCCCCCC/C=C\CCCCCCCCC(CCCCCCCC/C=C\CCCCCCCC)[n+]1ccn(C)c1.[Cl-] (stereo not shown) [Compound W8.7, 1-methyl-3-(hexatriaconta-8,27-dien-18-yl)-1H-imidazol-3-ium]
Transfection efficiency (eGFP %) Jurkat [1, 5]: 10-15%
Transfection efficiency (eGFP %) THP-1 ([3]; co-lipid DOPE): 70-80%
Transfection efficiency (eGFP %) BJ [4]: 80-85%

CCCCCCCCCCCCCCC(CCCCCCCCCCCCCC)CCCCC(CCCCCCCCCCCCCC)[n+]1ccn(C)c1.[Cl-] (stereo not shown) [Compound W9.7, 1-methyl-3-(20-tetradecyltetratriacontan-15-yl)-1H-imidazol-3-ium chloride]
Transfection efficiency (eGFP %) Jurkat [1, 5]: 10-15%
GFP expression one day post-transfection, comparison of co-lipids ([2]; CaCo2 cells, co-lipid DPyPE versus DOPE, PaLiPE, DiLiPE, molar ratio 1:2 (FIG. 3)): optimal
Transfection efficiency (eGFP %) CaCO2 ([2]; co-lipid DOPE): 40-50%
Transfection efficiency (eGFP %) THP-1 ([3]; co-lipid DOPE): 70-80%
Transfection efficiency (eGFP %) BJ [4]: 90-95%

CCCCCCCCCCCCCCCCCCC(CCCCCCCCCCCCCCCCCC)CCCCC(CC1CCCCC1)[n+]1ccn(C)c1.[Cl-] (stereo not shown) [Compound W14.7, 1-methyl-3-(1-cyclohexyl-7-octadecylpentacosan-2-yl)-1H-imidazol-3-ium chloride]
Transfection efficiency (eGFP %) Jurkat [1, 5]: 25-35%
Transfection efficiency (eGFP %) THP-1 ([3]; co-lipid DOPE): 55-65%

CCCCCCCCCCCCCCCCCCC(CCCCCCCCCCCCCCCCCC)CCCCC(Cc1ccccc1)[n+]1ccn(C)c1.[Cl-] (stereo not shown) [Compound W15.7, 1-methyl-3-(7-octadecyl-1-phenylpentacosan-2-yl)-1H-imidazol-3-ium chloride]
Transfection efficiency (eGFP %) Jurkat [1, 5]: 25-30%
Transfection efficiency (eGFP %) THP-1 ([3]; co-lipid DOPE): 55-70%

CCCCCCCCCCCCCCCCCCC(CCCCCCCCCCCCCCCCCC)CCCCC(CCC(C)CCCC(C)C)[n+]1ccn(C)c1.[Cl-] (stereo not shown) [Compound W16.7, 1-methyl-3-(2,6-dimethyl-14-octadecyldotriacontan-9-yl)-1H-imidazole-3-ium chloride]
Transfection efficiency (eGFP %) Jurkat [1, 5]: 35-40%
Transfection efficiency (eGFP %) CaCO2 ([2]; co-lipid DOPE): 15-20%
Transfection efficiency (eGFP %) THP-1 ([3]; co-lipid DOPE): 75-80%

CCCCCCCCCCCCCCCCCCC(CCCCCCCCCCCCCCCCCC)CCCCC(CCCCCC)[n+]1ccn(C)c1.[Cl-] (stereo not shown) [Compound W17.7, 1-methyl-3-(12-octadecyltriacontan-7-yl)-1H-imidazol-3-ium chloride]
Transfection efficiency (eGFP %) Jurkat [1, 5]: 30-35%
Transfection efficiency (eGFP %) THP-1 ([3]; co-lipid DOPE): 70-75%

CCCCCCCCCCCCCCC(CCCCCCCCCCCCCC)CCCCC(CCCCC(CCCCCCCCCCCCCC)CCCCCCCCCCCCCC)[n+]1ccn(C)c1.[Cl-] [Compound W18.9, 1-methyl-3-(15,25-ditetradecylnonatriacontan-20-yl)-1H-imidazol-3-ium chloride]
Transfection efficiency (eGFP %) Jurkat [1, 5]: 25-30%
Transfection efficiency (eGFP %) THP-1 ([3]; co-lipid DOPE): 80-85%

CCCCCCCCCCCCCCCCCCNC(CCCCCCCCCC)CCCC(CCCCCCCCCC)n1cc[n+](C)c1.Cl.[Cl-] (stereo not shown) [Compound W19.7, 1-methyl-3-(15-(octadecylammonio)pentacosan-11-yl)-1H-imidazol-3-ium chloride]
Transfection efficiency (eGFP %) Jurkat [1, 5]: 40-50%
Transfection efficiency (eGFP %) THP-1 ([3]; co-lipid DOPE): 40-50%

CCCCCCCCCCCCCCCCCCC(CCCCCCCCCCCCCCCCCC)CCCCC(CCC(C)CCCC(C)C)[n+]1ccn(CCCC)c1.[Cl-] (stereo not shown) [Compound W21.7, 1-butyl-3-(2,6-dimethyl-14-octadecyldotriacontan-9-yl)-1H-imidazol-3-ium chloride]
Transfection efficiency (eGFP %) Jurkat [1, 5]: 40-50%
Transfection efficiency (eGFP %) Jurkat ([1]; co-lipid DPyPE, ratio 1/2): 55-65%
Transfection efficiency (eGFP %) CaCO2 ([2]; co-lipid DOPE): 50-60%
Transfection efficiency (eGFP %) CaCO2 ([2]; co-lipid DPyPE): 60-70%
Transfection efficiency (eGFP %) THP-1 ([3]; co-lipid DOPE): 70-80%
Transfection efficiency (eGFP %) THP-1 ([3]; co-lipid DPyPE): 70-80%

CCCCCCCCCCCCCCC(CCCCCCCCCCCCCC)CCCCC(CCC(C)CCCC(C)C)[n+]1ccn(CCCC)c1.[Cl-] (stereo not shown) [Compound W22.7, 1-butyl-3-(2,6-dimethyl-14-tetradecyloctacosan-9-yl)-1H-imidazol-3-ium chloride]
Transfection efficiency (eGFP %) Jurkat [1, 5]: 50-60%
Transfection efficiency (eGFP %) Jurkat ([1]; co-lipid DPyPE, ratio 1/2): 40-55%
Transfection efficiency (eGFP %) THP-1 ([3]; co-lipid DOPE): 70-80%
Transfection efficiency (eGFP %) THP-1 ([3]; co-lipid DPyPE): 80-85%

CCCCn1cc[n+](C(CCCCC(CCC(C)CCCC(C)C)CCC(C)CCCC(C)C)CCC(C)CCCC(C)C)c1.[Cl-] (stereo not shown) [Compound W23.7, 1-butyl-3-(14-(3,7-dimethyloctyl)-2,6,17,21-tetramethyldocosan-9-yl)-1H-imidazol-3-ium chloride]
Transfection efficiency (eGFP %) Jurkat ([1]; co-lipid DPyPE, ratio 1/1.5): 25-30%
